Test results published in PubChem BioAssay AID1963856 (Molecular Pharmacology Branch, DTP, NCI, 2024).

System: LG0567-F671-PDC KRAS tumor spheroid viability
Test: Anticancer human tumor LG0567-F671-PDC patient-derived lung adenocarcinoma cell line growth inhibition [KRAS2]
Details: spheroids with HUVEC and MSC; for viability, T/C: stronger effect = lower value; active = viability on the fitted dose curve at most 10% of control; inactive = the rest
How it was run: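 Combination screen of spheroid viability in tumor-cell co-cultures with endothelial (HUVEC) and mesenchymal stem cell stroma. Each agent was tested in half-log dilutions, topping at clinical Cmax or at 10 microM without a known Cmax.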

[1] = curve of first compound, second compound 0.1 µM
[2] = curve of first compound, second compound 0.316 µM
[3] = curve of first compound, second compound 1 µM
[4] = curve of first compound, second compound 3.16 µM
[5] = curve of first compound, second compound 10 µM
[6] = second compound 0.1 µM, first compound 0.0316 µM
[7] = second compound 0.1 µM, first compound 0.1 µM
[8] = second compound 0.1 µM, first compound 0.316 µM
[9] = second compound 0.1 µM, first compound 1 µM
[10] = second compound 0.1 µM, first compound 3.16 µM
[11] = second compound 0.1 µM, first compound 10 µM
[12] = second compound 0.316 µM, first compound 0.0316 µM
[13] = second compound 0.316 µM, first compound 0.1 µM
[14] = second compound 0.316 µM, first compound 0.316 µM
[15] = second compound 0.316 µM, first compound 1 µM
[16] = second compound 0.316 µM, first compound 3.16 µM
[17] = second compound 0.316 µM, first compound 10 µM
[18] = second compound 1 µM, first compound 0.0316 µM
[19] = second compound 1 µM, first compound 0.1 µM
[20] = second compound 1 µM, first compound 0.316 µM
[21] = second compound 1 µM, first compound 1 µM
[22] = second compound 1 µM, first compound 3.16 µM
[23] = second compound 1 µM, first compound 10 µM
[24] = second compound 3.16 µM, first compound 0.0316 µM
[25] = second compound 3.16 µM, first compound 0.1 µM
[26] = second compound 3.16 µM, first compound 0.316 µM
[27] = second compound 3.16 µM, first compound 1 µM
[28] = second compound 3.16 µM, first compound 3.16 µM
[29] = second compound 3.16 µM, first compound 10 µM
[30] = second compound 10 µM, first compound 0.0316 µM
[31] = second compound 10 µM, first compound 0.1 µM
[32] = second compound 10 µM, first compound 0.316 µM
[33] = second compound 10 µM, first compound 1 µM
[34] = second compound 10 µM, first compound 3.16 µM
[35] = second compound 10 µM, first compound 10 µM
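Note: drug exposure lasted seven days after spheroids formed for three days.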
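Throughout, for viability, T/C: 100% = DMSO vehicle control viability.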

CC1(C)CCC(CN2CCN(c3ccc(C(=O)NS(=O)(=O)c4ccc(NCC5CCOCC5)c([N+](=O)[O-])c4)c(Oc4cnc5[nH]ccc5c4)c3)CC2)=C(c2ccc(Cl)cc2)C1 + CNCc1ccccc1-c1csc(C(C)Nc2nc(C)nc3cc(OC)c(OC)cc23)c1
inactive: viability, T/C [6] 72.6% | viability, T/C [7] 68.1% | viability, T/C [8] 70.6% | viability, T/C [9] 71.3% | viability, T/C [10] 22% | viability, T/C [11] 10.7% | viability, T/C [12] 69.5% | viability, T/C [13] 63.9% | viability, T/C [14] 61.2% | viability, T/C [15] 70.2% | viability, T/C [16] 17.9% | viability, T/C [18] 69.4% | viability, T/C [19] 77.7% | viability, T/C [20] 62% | viability, T/C [21] 64.3% | viability, T/C [22] 18.3%
< 31.6 nM: IC50 [4] | IC50 [5]
1630 nM: IC50 [1]
1470 nM: IC50 [2]
1420 nM: IC50 [3]
active: viability, T/C [17] 8.6% | viability, T/C [23] 2.9% | viability, T/C [24] 0.33% | viability, T/C [25] 0.44% | viability, T/C [26] 0.44% | viability, T/C [27] 2.14% | viability, T/C [28] 1.73% | viability, T/C [29] 0.34% | viability, T/C [30] 0.43% | viability, T/C [31] 0.89% | viability, T/C [32] 0.6% | viability, T/C [33] 0.39% | viability, T/C [34] 2.18% | viability, T/C [35] 0.44%

CC1OCC2(CCN(c3cnc(Sc4ccnc(N)c4Cl)c(N)n3)CC2)C1N (stereo not drawn) + C=CC(=O)N1CCN(c2nc(=O)n(-c3c(C)ccnc3C(C)C)c3nc(-c4c(O)cccc4F)c(F)cc23)C(C)C1
< 31.6 nM: IC50 [1] | IC50 [2] | IC50 [3] | IC50 [4] | IC50 [5]
active: viability, T/C [8] 8.87% | viability, T/C [9] 5.62% | viability, T/C [10] 3.47% | viability, T/C [11] 2.54% | viability, T/C [14] 8.99% | viability, T/C [15] 4.26% | viability, T/C [16] 2.66% | viability, T/C [17] 2.19% | viability, T/C [20] 10.2% | viability, T/C [21] 4.27% | viability, T/C [22] 5.62% | viability, T/C [23] 2.9% | viability, T/C [26] 7.63% | viability, T/C [27] 4% | viability, T/C [28] 1.9% | viability, T/C [29] 3.71% | viability, T/C [32] 8.61% | viability, T/C [33] 4.3% | viability, T/C [34] 3.58% | viability, T/C [35] 3.08%
inactive: viability, T/C [6] 17.5% | viability, T/C [7] 13.5% | viability, T/C [12] 17.9% | viability, T/C [13] 13.2% | viability, T/C [18] 16.2% | viability, T/C [19] 15.9% | viability, T/C [24] 16.6% | viability, T/C [25] 11.6% | viability, T/C [30] 17.6% | viability, T/C [31] 13.8%

CNCc1ccccc1-c1csc(C(C)Nc2nc(C)nc3cc(OC)c(OC)cc23)c1 (stereo not drawn)
active: viability, T/C (compound 10 µM) 0.63% [middle of 16 runs]
1.25 µM [middle of 5 runs]: IC50 (compound alone, run of 07/19/2021)
4.92 µM [middle of 6 runs]: IC50 (compound alone, run of 07/26/2021)

CC1COCCN1c1cc(-c2ccnn2C)c2ccnc(-c3ccn[nH]3)c2n1 (stereo not drawn) + CNCc1ccccc1-c1csc(C(C)Nc2nc(C)nc3cc(OC)c(OC)cc23)c1
41.4 nM: IC50 [3]
< 10 nM: IC50 [5]
active: viability, T/C (second compound 10 µM, first compound 0.01 µM) 0.18% | viability, T/C [30] 0.17% | viability, T/C [31] 0.15% | viability, T/C [32] 0.17% | viability, T/C [33] 0.74% | viability, T/C [34] 0.24%
inactive: viability, T/C (second compound 0.1 µM, first compound 0.01 µM) 87.1% | viability, T/C [6] 74.4% | viability, T/C [7] 60.2% | viability, T/C [8] 58.9% | viability, T/C [9] 48.6% | viability, T/C [10] 54% | viability, T/C (second compound 0.316 µM, first compound 0.01 µM) 85.9% | viability, T/C [12] 77.7% | viability, T/C [13] 60.6% | viability, T/C [14] 50.6% | viability, T/C [15] 46% | viability, T/C [16] 49.2% | viability, T/C (second compound 1 µM, first compound 0.01 µM) 68% | viability, T/C [18] 50.7% | viability, T/C [19] 42.6% | viability, T/C [20] 41.4% | viability, T/C [21] 34.7% | viability, T/C [22] 33.4% | viability, T/C (second compound 3.16 µM, first compound 0.01 µM) 65.6% | viability, T/C [24] 58.5% | viability, T/C [25] 61.6% | viability, T/C [26] 29.8% | viability, T/C [27] 33.2% | viability, T/C [28] 36.2%
160 nM: IC50 [4]
> 3160 nM: IC50 [1]
372 nM: IC50 [2]

CCNC(=O)CC1N=C(c2ccc(Cl)cc2)c2cc(OC)ccc2-n2c(C)nnc21 (stereo not drawn) + CNCc1ccccc1-c1csc(C(C)Nc2nc(C)nc3cc(OC)c(OC)cc23)c1
1010 nM: IC50 [1]
602 nM: IC50 [2]
active: viability, T/C [26] 1.46% | viability, T/C [27] 0.1% | viability, T/C [28] 2.03% | viability, T/C [29] 1.27% | viability, T/C [30] 0.18% | viability, T/C [31] 0.15% | viability, T/C [32] 0.22% | viability, T/C [33] 0.09% | viability, T/C [34] 0.09% | viability, T/C [35] 0.15%
< 31.6 nM: IC50 [5]
362 nM: IC50 [3]
inactive: viability, T/C [6] 96.7% | viability, T/C [7] 92.1% | viability, T/C [8] 66.1% | viability, T/C [9] 49.9% | viability, T/C [10] 42.1% | viability, T/C [11] 30% | viability, T/C [12] 85.4% | viability, T/C [13] 87.6% | viability, T/C [14] 64.1% | viability, T/C [15] 39.2% | viability, T/C [16] 32.7% | viability, T/C [17] 30.6% | viability, T/C [18] 70.2% | viability, T/C [19] 67.6% | viability, T/C [20] 49% | viability, T/C [21] 39% | viability, T/C [22] 29.7% | viability, T/C [23] 25.5% | viability, T/C [24] 72.3% | viability, T/C [25] 62.5%
127 nM: IC50 [4]
